Measured values as given in patent US20240124442A1, “TRICYCLIC-AMIDO-BICYCLIC PRMT5 INHIBITORS” (AMGEN INC., priority 2021, published 2024).

What was measured:
[1] = tested on: HCT116 MTAP null cells; experiment: HCT116 MTAP null cell line proliferation / cell viability (CellTiter-Glo, 6 days); assay type: cell-based; details: 144 h; HCT116 MTAP null cells, 6 days treatment, CellTiter-Glo cell viability; read-out: HCT-116 MTAP null IC50
Experimental: (§1) HCT116 Proliferation Activity
(§2) To assess selective anti-proliferative activity of compounds of the invention in cells that have loss expression of MTAP, an HCT-116 isogenic cell line pair was utilized where one cell line was engineered to genetically knockout both MTAP alleles. Cell viability was then assessed in both the parent HCT-116 cell line and the MTAP null cell line after 6 days of treatment with compounds of the present invention. Selective anti-proliferative activity in the MTAP null cell line indicates MTA-cooperative inhibition of PRMT5 and ability to inhibit growth of cancer cells that have loss of MTAP.
(§3) HCT116 MTAP null and WT cells were seeded in 96-well tissue culture plates in RPMI 1640 media+10% fetal bovine serum. Plates were incubated overnight at 37° C. and 5% CO2. Cells were then treated with an 8- or 9-point serial dilution of compound, using a top concentration of 1, or 10 μM, 1:3 serial dilution steps and, a DMSO-only control. Cells were incubated in the presence of drug for 6 days. Effects on cell viability were measured with the CellTiter-Glo® Luminescent Cell Viability Assay (Promega) per manufacturer's recommendation. Assay plates were read on an EnVision™ Multilabel Reader using the Ultra-Sensitive luminescence module. IC50 values were calculated with GraphPad Prism v 5.01 using symmetrical sigmoidal dose-response least squares fit with Hill slope fixed to −1 and top constrain to 100% or GeneData Screener using a 4-parameter logistic model to fit dose response curves.
(§4) Alternatively, compounds could be assayed with a 384 well plate format:
(§5) Compounds were pre-spotted into 384 well plates with a 22-point serial dilution of compound, using a top concentration of 10 or 50 μM, 1:2 serial dilution steps and, a DMSO-only control. HCT116 MTAP null and WT cells were then seeded as above and after 6 days effects on cell viability were measured with the CellTiter-Glo® Luminescent Cell Viability Assay (Promega). Assay plates were read as above and IC50 values were calculated with GeneData Screener using a 4-parameter logistic model to fit dose response curves. The reported IC50 represents the value where the curve transits 50% of control.

[2] = tested on: HCT116 WT cells; experiment: HCT116 WT (parent) cell line proliferation / cell viability (CellTiter-Glo, 6 days); assay type: cell-based; details: Homo sapiens, HCT-116, 144 h, 6 days treatment
Experimental: as §1, §2, §3, §4, §5

Structure (SMILES)	IC50 [1]	IC50 [2]
C[C@@H]1OCc2c(N)nc3ccc(C(=O)N(C)C4COc5cc(C(F)(F)F)ccc54)cc3c21 (mixture of isomers) [Example 205, (1R)-4-amino-N,1-dimethyl-N-((3S)-6-(trifluoromethyl)-2,3-dihydro-1-benzofuran-3-yl)-1,3-dihydrofuro[3,4-c]quinoline-8-carboxamide and (1S)-4-amino-N,1-dimethyl-N-((3S)-6-(trifluoromethyl)-2,3-dihydro-1-benzofuran-3-yl)-1,3-dihydrofuro[3,4-c]quinoline-8-carboxamide]	360 nM	12300 nM
CN(C(=O)c1ccc2nc(N)c3c(c2c1)COC3)C1COc2cc(C#N)ccc21 (racemic) [Example 201, 4-amino-N-((3R)-6-cyano-2,3-dihydro-1-benzofuran-3-yl)-N-methyl-1,3-dihydrofuro[3,4-c]quinoline-8-carboxamide and 4-amino-N-((3S)-6-cyano-2,3-dihydro-1-benzofuran-3-yl)-N-methyl-1,3-dihydrofuro[3,4-c]quinoline-8-carboxamide]	149 nM	5820 nM
CN(C(=O)c1ccc2nc(N)c3c(c2c1)COC3)C1COc2cc(Br)ccc21 (racemic) [Example 203, 4-amino-N-((3R)-6-bromo-2,3-dihydro-1-benzofuran-3-yl)-N-methyl-1,3-dihydrofuro[3,4-c]quinoline-8-carboxamide and 4-amino-N-((3S)-6-bromo-2,3-dihydro-1-benzofuran-3-yl)-N-methyl-1,3-dihydrofuro[3,4-c]quinoline-8-carboxamide]	93 nM	4590 nM
N#CCN(C(=O)c1cc2c3c(c(N)nc2cn1)COC3)C1COc2cc(C(F)(F)F)ccc21 (racemic) [Example 208, 4-amino-N-(cyanomethyl)-N-((3R)-6-(trifluoromethyl)-2,3-dihydro-1-benzofuran-3-yl)-1,3-dihydrofuro[3,4-c][1,7]-naphthyridine-8-carboxamide and 4-amino-N-(cyanomethyl)-N-((3S)-6-(trifluoromethyl)-2,3-dihydro-1-benzofuran-3-yl)-1,3-dihydrofuro[3,4-c][1,7]-naphthyridine-8-carboxamide]	553 nM	16600 nM
CN(C(=O)c1cc2c3c(c(N)nc2cc1F)COC3)C1c2ccc(C(F)(F)F)nc2CC1(C)C (racemic) [Example 213, 4-amino-N-((5R)-6,6-dimethyl-2-(trifluoromethyl)-6,7-dihydro-5H-cyclopenta[b]-pyridin-5-yl)-7-fluoro-N-methyl-1,3-dihydrofuro[3,4-c]-quinoline-8-carboxamide and 4-amino-N-((5S)-6,6-dimethyl-2-(trifluoromethyl)-6,7-dihydro-5H-cyclopenta[b]-pyridin-5-yl)-7-fluoro-N-methyl-1,3-dihydrofuro[3,4-c]-quinoline-8-carboxamide]	365 nM	12900 nM
CN(C(=O)c1cc2c3c(c(N)nc2cc1F)COC3)C1c2ccc(C(F)(F)F)nc2CC1(F)F (racemic) [Example 215, 4-amino-N-((5R)-6,6-difluoro-2-(trifluoromethyl)-6,7-dihydro-5H-cyclopenta[b]-pyridin-5-yl)-7-fluoro-N-methyl-1,3-dihydrofuro[3,4-c]-quinoline-8-carboxamide and 4-amino-N-((5S)-6,6-difluoro-2-(trifluoromethyl)-6,7-dihydro-5H-cyclopenta[b]pyridin-5-yl)-7-fluoro-N-methyl-1,3-dihydro-furo[3,4-c] quinoline-8-carboxamide]	427 nM	15000 nM
CN(C(=O)c1ccc2nc(N)c3cnn(C)c3c2c1)C1COc2ncc(C(F)(F)F)cc21 (racemic) [Example 226, 4-amino-N,1-dimethyl-N-((3R)-5-(trifluoromethyl)-2,3-dihydrofuro[2,3-b]pyridin-3-yl)-1H-pyrazolo[4,3-c]quinoline-8-carboxamide and 4-amino-N,1-dimethyl-N-((3S)-5-(trifluoromethyl)-2,3-dihydro-furo[2,3-b]pyridin-3-yl)-1H-pyrazolo[4,3-c]quinoline-8-carboxamide]	38 nM	2150 nM
CCN(C(=O)c1ccc2nc(N)c3cnn(C)c3c2c1)C1COc2cc(C(F)(F)F)ccc21 (racemic) [Example 228, 4-amino-N-ethyl-1-methyl-N-((3R)-6-(trifluoromethyl)-2,3-dihydro-1-benzofuran-3-yl)-1H-pyrazolo[4,3-c]quinoline-8-carboxamide and 4-amino-N-ethyl-1-methyl-N-((3S)-6-(trifluoromethyl)-2,3-dihydro-1-benzofuran-3-yl)-1H-pyrazolo[4,3-c]quinoline-8-carboxamide]	7 nM	683 nM

Second part, the molecule after the results:

IC50 [1]	IC50 [2]	Structure (SMILES)
724 nM	24900 nM	CN=S(C)(=O)c1ccc2c(c1)OC[C@H]2N(C)C(=O)c1ccc2nc(N)c3c(c2c1)COC3 (mixture of isomers) [Example 447, 4-amino-N-((3S)-6-((R)-N,S-dimethylsulfonimidoyl)-2,3-dihydro-1-benzofuran-3-yl)-N-methyl-1,3-dihydrofuro[3,4-c]quinoline-8-carboxamide and 4-amino-N-((3S)-6-((S)-N,S-dimethylsulfonimidoyl)-2,3-dihydro-1-benzofuran-3-yl)-N-methyl-1,3-dihydrofuro[3,4-c]quinoline-8-carboxamide]
842 nM	24100 nM	CN=S(C)(=O)c1ccc2c(c1)OC[C@H]2N(C)C(=O)c1cc2c3c(c(N)nc2cn1)COC3 (mixture of isomers) [Example 456, 4-amino-N-((3S)-6-((R)-N,S-dimethylsulfonimidoyl)-2,3-dihydro-1-benzofuran-3-yl)-N-methyl-1,3-dihydrofuro[3,4-c][1,7]naphthyridine-8-carboxamide and 4-amino-N-((3S)-6-((S)-N,S-dimethylsulfonimidoyl)-2,3-dihydro-1-benzofuran-3-yl)-N-methyl-1,3-dihydrofuro[3,4-c][1,7]naphthyridine-8-carboxamide]
871 nM	38300 nM	CN(C(=O)c1cc2c3c(c(N)nc2cc1F)COC3)[C@@H]1COc2cc(C(F)(F)F)cnc21 (mixture of isomers) [Example 461, 4-amino-7-fluoro-N-methyl-N-((3R)-6-(trifluoromethyl)-2,3-dihydrofuro[3,2-b]pyridin-3-yl)-1,3-dihydrofuro[3,4-c]quinoline-8-carboxamide and 4-amino-7-fluoro-N-methyl-N-((3S)-6-(trifluoromethyl)-2,3-dihydrofuro[3,2-b]pyridin-3-yl)-1,3-dihydrofuro[3,4-c]quinoline-8-carboxamide]
134 nM	14700 nM	CN=S(C)(=O)c1ccc2c(c1)OC[C@H]2N(C)C(=O)c1cc2c3c(c(N)nc2cc1F)COC3 (mixture of isomers) [Example 463, 4-amino-N-((3S)-6-((R)-N,S-dimethylsulfonimidoyl)-2,3-dihydro-1-benzofuran-3-yl)-7-fluoro-N-methyl-1,3-dihydrofuro[3,4-c]quinoline-8-carboxamide and 4-amino-N-((3S)-6-((S)-N,S-dimethylsulfonimidoyl)-2,3-dihydro-1-benzofuran-3-yl)-7-fluoro-N-methyl-1,3-dihydrofuro[3,4-c]quinoline-8-carboxamide]
723 nM	19000 nM	CN(C(=O)c1ccc2nc(N)c3cnn(C)c3c2c1)C1c2ccc(C(F)(F)F)nc2CC1(F)F (racemic) [Example 233, 4-amino-N-((5R)-6,6-difluoro-2-(trifluoromethyl)-6,7-dihydro-5H-cyclopenta[b]pyridin-5-yl)-N,1-dimethyl-1H-pyrazolo[4,3-c]quinoline-8-carboxamide and 4-amino-N-((5S)-6,6-difluoro-2-(trifluoromethyl)-6,7-dihydro-5H-cyclopenta[b]pyridin-5-yl)-N,1-dimethyl-1H-pyrazolo[4,3-c]quinoline-8-carboxamide]
5 nM	533 nM	CN(C(=O)c1cc2c(cc1F)nc(N)c1cnn(C)c12)C1COc2nc(C(F)(F)F)ccc21 (racemic) [Example 242, 4-amino-7-fluoro-N,1-dimethyl-N-((3R)-6-(trifluoromethyl)-2,3-dihydrofuro[2,3-b]pyridin-3-yl)-1H-pyrazolo[4,3-c]-quinoline-8-carboxamide and 4-amino-7-fluoro-N,1-dimethyl-N-((3S)-6-(trifluoromethyl)-2,3-dihydrofuro[2,3-b]pyridin-3-yl)-1H-pyrazolo[4,3-c]-quinoline-8-carboxamide]
